Earlier results on five compounds are cited in patent publication US6855805B2 (priority 1999, dated 2005).

SMILES strings stand for the structures.

The data set relates to neuromuscular block. To be noted: dose mg/kg: Sux 1.0, Org 9847 1.5, Rocuronium 0.6, Mivacurium 0.2, Vecuronium 0.1, Cisatracurium 0.1.

`C=CC[N+]1([C@H]2C[C@H]3[C@@H]4CC[C@H]5C[C@H](O)[C@@H](N6CCOCC6)C[C@]5(C)[C@H]4CC[C@]3(C)[C@H]2OC(C)=O)CCCC1` [Rocuronium]: the “Onset Time” value was 80 s, the “Recovery 25%” value is listed as 40 min and the “Recovery 75%” value is 60 min.
`COc1ccc(C[C@@H]2c3cc(OC)c(OC)cc3CC[N@+]2(C)CCC(=O)OCCCCCOC(=O)CC[N@@+]2(C)CCc3cc(OC)c(OC)cc3[C@H]2Cc2ccc(OC)c(OC)c2)cc1OC` [Cisatracurium]: the “Onset Time” value is 120 to 180 s, the “Recovery 25%” value was 45 min and the “Recovery 75%” value is 60 to 70 min.
Turning to `COc1cc2c(cc1OC)[C@@H](Cc1cc(OC)c(OC)c(OC)c1)[N+](C)(CCCOC(=O)CC/C=C/CCC(=O)OCCC[N+]1(C)CCc3cc(OC)c(OC)cc3[C@H]1Cc1cc(OC)c(OC)c(OC)c1)CC2` (stereo partly drawn) [Mivacurium], the “Onset Time” value was 150 s, the “Recovery 25%” value is 20 min and the “Recovery 75%” value was 27 min.
As for `C[N+](C)(C)CCOC(=O)CCC(=O)OCC[N+](C)(C)C` [Sux, succinylcholine chloride], the “Onset Time” value is 60 s, the “Recovery 25%” value is 5 to 7 min and the “Recovery 75%” value is on record as 10 min.
For `CC(=O)O[C@H]1C[C@@H]2CC[C@@H]3[C@H](CC[C@@]4(C)[C@H]3C[C@H]([N+]3(C)CCCCC3)[C@@H]4OC(C)=O)[C@@]2(C)C[C@@H]1N1CCCCC1` [Vecuronium], the “Onset Time” value is 120 to 180 s, the “Recovery 25%” value is recorded as 40 min and the “Recovery 75%” value is given as 60 min.
